Patent US4313937A, “Method for producing long-lasting analgesic effects of β-endorphin” (priority 1980, dated 1982)
Several values for one entry are separate records, joined by “and”; a condition that tells them apart may be missing. Equal values may be shown once. Entries after “also recorded” stand apart in the source; their conditions may differ.

Columns and labels:
[1] = tested on: man and laboratory animals; details: intravenously or intramuscularly administered; cited from earlier work
[2] = tested on: patients with chronic intractable pain; test: Clinical test of analgesia in patients with chronic intractable pain secondary to metastatic malignancies (visual pain scale); format: in vivo, man
Description: Twenty-three patients with chronic intractable pain in the back, chest, abdomen, rectum and/or thigh regions secondary to metastatic malignancies were selected for this test.
The protocol was explained to them, and informed consent was obtained. Systemic analgesics were withheld for at least 5 hours before administration of β-endorphin. Neurological examinations and electroencephalography (EEG) were performed immediately before and every 2 hours after the injection of β-endorphin. The visual pain scale ("Adv. Neurol.", 1974, 4, 281-283) was explained to each patient; baseline pain intensity was determined 30 min. before the injection.
β-Endorphin acetate used here was prepared to high purity according to the method described in the Biochem. Biophys. Res. Commun., 74, 248-255 (1977). β-Endorphin acetate, 3 mg (equivalent to 2.5 mg of dried free β-endorphin) with 150 mg of glucose and 3 ml of distilled water (in 8 patients, cases 1-8) or with 3 ml of physiological saline and no glucose (in 7 patients, cases 9-15), was injected into the subarachnoid space (cases 1-14) or epidural space (case 15) of the spinal cord by lumbar puncture between the 2nd and 3rd lumbar vertebrae. After the injection of β-endorphin acetate, the intensity of pain, vital signs, central-nervous-system examination, EEG, electrocardiogram (ECG), pulse rate, respiratory rate, blood-gas analysis, and body temperature were monitored. Simple behavioural parameters were also observed.
In a single-randomization design, three physicians administered successively β-endorphin acetate injection or physiological saline (as a placebo) in random order to 5 patients (cases 9-12, 14). All other patients received only β-endorphin acetate, without placebo.
For the purpose of comparison, β-endorphin acetate was injected intramuscularly (cases 18-20), intravenously (cases 16 and 17), and intracerebrally (cases 20-23).
In this test, all the injections of β-endorphin to patients were sterilized through Millipore filter.

[3] = tested on: patient; details: infusion into the cerebral ventricle; cited from earlier work
[4] = epidural space, 3 mg acetate in 3 ml physiological saline, case 15
[5] = intracerebral (cerebral ventricle), comparison, cases 21-23
[6] = subarachnoid space, 3 mg acetate in 3 ml physiological saline, single patients (cases 9-14)
[7] = subarachnoid space, 3 mg acetate with 150 mg glucose in 3 ml distilled water, single patients (cases 1-8)

In the case of β-Endorphin acetate, the analgesia [1] is given as “no statistically significant analgesia”, the “duration of drowsiness after injection” value ([2]; 12 of 15 patients, subarachnoid or epidural space) is given as 1 to 4 h and the “time until pain disappeared after the injection” value ([2]; 13 of the 15 patients, subarachnoid or epidural space) is given as 1 to 5 min. For the same substance, the “relief of pain reported” value ([2]; all 15 patients, subarachnoid or epidural space of the spinal cord) was “complete relief of pain”, the arousability ([2]; all the patients, subarachnoid or epidural space) was “easily arousable by verbal stimuli” and the “duration of sleep after injection” value ([2]; case No. 5 (in 40 min. after injection) and case No. 7 (in 10 min. after injection)) was 80 min and 110 min. For the same substance, the “perception of venepuncture and light touch” value ([2]; during the period of pain relief) was “remained intact”, the “abnormalities in the ECG or EEG” value ([2]; during the procedure) was “No abnormalities” and the “Pain relief after β-endorphin, Duration” value [2, 4] was 68 h. For the same substance, the “Pain relief after β-endorphin, Onset” value [2, 4] was 2 min, the Remarks ([2]; epidural space, 3 mg acetate in physiological saline, case 15) was “Sleep” and the “duration of relief of pain” value ([2]; injected into cerebral ventricle, all 3 patients) was 8 to 12 h. The “Pain relief after β-endorphin, Duration” value [2, 5] was 10 h and 12 h and 8 h, the “Pain relief after β-endorphin, Onset” value [2, 5] was 3 min and 4 min and the analgesic effect ([2]; intramuscular, 2 of 3 patients) was “no analgesic effect”. For the same substance, the analgesic effect ([2]; intravenous, one of 2 patients) was “no analgesic effect”, the “duration of analgesic effect” value ([2]; intravenous, the other of 2 patients, considered to be placebo effect) was “one” and the “duration of pain relief after the injection, average” value ([2]; subarachnoid or epidural space) was 33.4 h. For the same substance, the “signs of respiratory depression, arterial blood-gas changes, nausea, hypotension, hypothermia, catatonia, or muscle rigidity” value ([2]; subarachnoid or epidural space) was “No signs”, the “discomfort caused by the injection” value ([2]; subarachnoid or epidural space, all the patients) was “no discomfort” and the “Pain relief after β-endorphin, Duration” value [2, 6] was 24 h. and 25 h. and 47 h. and 731/2 and 51 h. and 221/2. The “Pain relief after β-endorphin, Onset” value [2, 6] was 16 min and 2 min, the Remarks ([2]; subarachnoid space, 3 mg acetate in physiological saline, single patients (cases 9-14)) was “Sleep; also recorded: Euphoria; also recorded: somnolence” and the “Pain relief after β-endorphin, Duration” value [2, 7] was 27 h. and 271/2 and 261/2 and 291/2 and 24 h. and 36 h. and 251/2 and 281/2. For the same substance, the “Pain relief after β-endorphin, Onset” value [2, 7] was 5 min and 4 min and 1 min and 2 min, the Remarks ([2]; subarachnoid space, 3 mg acetate with glucose, single patients (cases 1-8)) was “Somnolence; also recorded: Sleep; also recorded: somniloquy; also recorded: Euphoria” and the “duration of sleep after injection” value ([2]; the other 6 of the 8 patients who slept) was 60 to 120 min. For the same substance, the side effects [3] was “induces various undersirable side effects”.
